Reference: patent US20060154923A1, “N-phenyl-3-cyclopropylpyrazole-4-carbonitriles as ectoparasiticidal agents” (priority 2002, published 2006)
Like-named read-outs stand apart in the source and are kept apart here.

Assays:
Assay type in all cases: in vivo
[1] = tested on: Ctenocephatides felis, adult cat fleas; test: Contact activity against adult cat fleas, coated glass vial assay
Experimental: Evaluation of the Efficacy of Test Compounds Against Adult Cat Fleas
(§1) The contact activity of a test compound against Ctenocephatides felis, adult cat fleas, is evaluated in a coated, glass vial assay. In this evaluation, a solution of test compound in acetone is allowed to dry on the interior surface of a 20 mL vial. Ten unfed adult cat fleas are added to the treated vial and mortality is assessed periodically for up to 48 h. All treatments are replicated 2 times. The data are averaged.

[2] = tested on: Rhipacephalus sanguineus, adult ticks; test: Contact activity against adult ticks, coated glass vial assay
Experimental: Evaluation of the Efficacy of Test Compounds Against Adult Ticks
as §1, with “Rhipacephalus sanguineus,” for “Ctenocephatides felis,”, “ticks,” for “cat fleas,”, “coated” for “coated,”, “Five” for “Ten”, “ticks” for “cat fleas”

[3] = tested on: newly emerged larvae of Lucilia sericata, blowfly; test: Efficacy against blowfly larvae, treated paper/serum bioassay; details: blowfly larvae; for mortality at 0.2 ppm / mortality at 2 ppm / mortality at 20 ppm: Lucilia sericata
Experimental: Evaluation of Efficacy of Test Compounds Against Blowfly Larvae
The efficacy of a test compound against newly emerged larvae of Lucilia sericata, blowfly, is evaluated using a treated paper/serum bioassay. In this evaluation, a solution of test compound in acetone is applied to a filter paper disc and the disc is allowed to dry. Bovine serum and about 20 newly emerged blowfly larvae are added to the treated paper disc and the mortality is assessed at 24 h and 48 h. The data are averaged.

[4] = Conc. 0.2 ppm, 24 h, read-out: % Mortality 24 h
[5] = Conc. 0.2 ppm, 48 h, read-out: % Mortality 48 h
[6] = Conc. 2.0 ppm, 24 h, read-out: % Mortality 24 h
[7] = Conc. 2.0 ppm, 48 h, read-out: % Mortality 48 h
[8] = Conc. 20.0 ppm, 24 h, read-out: % Mortality 24 h
[9] = Conc. 20.0 ppm, 48 h, read-out: % Mortality 48 h

SMILES	% Mortality 4 h ([1]; Conc. 0.2 ug/cm2, 4 h) [%]	% Mortality 24 h ([1]; Conc. 0.2 ug/cm2, 24 h) [%]	% Mortality 4 h ([1]; Conc. 2 ug/cm2, 4 h) [%]	% Mortality 24 h ([1]; Conc. 2 ug/cm2, 24 h) [%]	% Mortality 4 h ([2]; Conc. 0.78 ug/cm2, 4 h) [%]	% Mortality 24 h ([2]; Conc. 0.78 ug/cm2, 24 h) [%]	% Mortality 4 h ([2]; Conc. 7.80 ug/cm2, 4 h) [%]	% Mortality 24 h ([2]; Conc. 7.80 ug/cm2, 24 h) [%]	% Mortality 24 h ([3]; Conc. 0.2 ppm, 24 h) [%]	% Mortality 48 h ([3]; Conc. 0.2 ppm, 48 h) [%]	% Mortality 24 h ([3]; Conc. 2.0 ppm, 24 h) [%]	% Mortality 48 h ([3]; Conc. 2.0 ppm, 48 h) [%]	% Mortality 24 h ([3]; Conc. 20.0 ppm, 24 h) [%]	% Mortality 48 h ([3]; Conc. 20.0 ppm, 48 h) [%]	mortality at 0.2 ppm [3, 4] [%]	mortality at 0.2 ppm [3, 5] [%]	mortality at 2 ppm [3, 6] [%]	mortality at 2 ppm [3, 7] [%]	mortality at 20 ppm [3, 8] [%]	mortality at 20 ppm [3, 9] [%]	other results
CC1(c2nn(-c3c(Cl)cc(C(F)(F)F)cc3Cl)c(Br)c2C#N)CC1(Cl)Cl (centres unmarked) [Example 29]	20	100	50	100	0	40	20	60	15	15	100	100	100	100							% Mortality 4 h ([1]; Conc. 0.02 ug/cm2, 4 h): 10%; % Mortality 24 h ([1]; Conc. 0.02 ug/cm2, 24 h): 100%
CC1(c2nn(-c3c(Cl)cc(C(F)(F)F)cc3Cl)cc2C#N)CC1(Br)Br (centres unmarked) [Example 14]			10	100	40	40	50	80	50	50	100	100	95	100							
CC1(c2nn(-c3c(Cl)cc(C(F)(F)F)cc3Cl)c(Cl)c2C#N)CC1(Br)Br (centres unmarked) [Example 20]			20	100	0	20	20	50	0	0	100	100	100	100							
CC1(c2nn(-c3c(Cl)cc(C(F)(F)F)cc3Cl)c(Cl)c2C#N)CC1(Cl)Cl (centres unmarked) [Example 4, 5-Chloro-3-(2,2-dichloro-1-methylcyclopropyl)-1-[2,6-dichloro-4-(trifluoromethyl)phenyl]-1H-pyrazole-4-carbonitrile]	60	100	100	100	60	100	60	100							100	100	100	100	100	100	% Mortality 4 h ([1]; Conc. 0.002 ug/cm2, 4 h): 20%; % Mortality 24 h ([1]; Conc. 0.002 ug/cm2, 24 h): 100%
CC1(c2nn(-c3c(Cl)cc(C(F)(F)F)cc3Cl)c(N)c2C#N)CC1(Cl)Cl (centres unmarked) [Example 19, 5-Amino-3-(2,2-dichloro-1-methylcyclopropyl)-1-[2,6-dichloro-4-(trifluoromethyl)phenyl]-1H-pyrazole-4-carbonitrile]			0	10	0	20	40	70							0	0	100	100	75	95	
